According to patent publication US4068074A, “Cephalosporin derivatives having at the 3-position of the cephem ring a heterocyclic thiomethyl group with a carboxy or sulfo group and at the 7-position of the cephem ring an α-heterocylic acylaminophenyl-acetamide group” (priority 1974, dated 1978):
Converted amounts (≈) assume the structure as drawn. Like-named read-outs stand apart in the source and are kept apart here.

Assays:
[1] = type: in vitro ADME
From the text: Still another advantage of the compounds of this invention is that they are not inactivated in the internal organs of the body. For example, when the compounds of this invention and cephalotin are each homogenized with internal organs, the compounds of this invention are not decomposed while cephalotin is decomposed.

Staphylococcus Onuma = test: MIC against bacteria (Table I), strain (18); type: cell-based
From the text: (§1) Now, for illustrating the excellent pharmacological effects of the compounds of this invention, the values of MIC (γ/ml.) of the compounds against various bacteria are shown in Table 1, in which the compounds of this invention used are shown by example numbers.
(18) Staphylococcus Onuma

Salmonella enteritidis = test: MIC against bacteria (Table I), strain (10); type: cell-based; details: Salmonella enterica, ENTERITIDIS
From the text: as §1
(10) Salmonella enteritidis

[2] = test system: Escherichia coli kauffmann 0-1; test: MIC against bacteria (Table I), strain (7); type: cell-based; details: Escherichia coli
From the text: as §1
(7) Escherichia coli kauffmann 0-1

[3] = test system: β-lactamase isolated from Pseudomonas aeruginosa 21; test: Resistance to β-lactamase: amount of unaltered test sample (Table 3); type: biochemical; details: initial concentration 100γ/ml
From the text: For example, the relation between the amount (γ/ml) of an unaltered test sample at an initial concentration of the sample 100γ/ml against β-lactamase isolated from Pseudomonas aeruginosa 21 at various dilutions of the enzyme were investigated.

[4] = test system: Pseudomonas aeruginosa 99 (Gentamycin resistant); test: MIC against bacteria (Table I), strain (5); type: cell-based
From the text: as §1
(5) Pseudomonas aeruginosa 99 (Gentamycin resistant)

Salmonella typhi H901 W = test: MIC against bacteria (Table I), strain (9); type: cell-based; details: Salmonella enterica, TYPHI
From the text: as §1
(9) Salmonella typhi H901 W

[5] = test system: Staphylococcus Shimanishi; test: MIC against bacteria (Table I), strain (17); type: cell-based; details: Staphylococcus
From the text: as §1
(17) Staphylococcus Shimanishi

[6] = test system: Pseudomonas aeruginosa ATCC 8689; test: MIC against bacteria (Table I), strain (4); type: cell-based; details: ATCC8689
From the text: as §1
(4) Pseudomonas aeruginosa ATCC 8689

[7] = Residual antibacterial activity after incubation with 10% liver homogenate (Table 4); type: in vitro ADME, male Sprague-Dowley rat; details: for remaining at 0.25 h / remaining at 0.5 h / remaining at 1.5 h: 10% liver homogenate
Experimental: (§2) The relation between the reaction period of time and the antibacterial activity (residual activity, %) when these compounds are incubated with the plasma and the liver homogenate of a male Sprague-Dowley rat is shown in Table 4. The residual antibacterial activity was measured by a thin-layer cup method according to Bacillus subtilis ATCC 6633.
B*Residual activity (%) when incubated with 10% liver homogenate.

[8] = test system: Bacillus subtilis ATCC 6633; test: MIC against bacteria (Table I), strain (14); type: cell-based; details: ATCC6633
From the text: as §1
(14) Bacillus subtilis ATCC 6633

[9] = test system: Shigella flexneri 2a 1675; test: MIC against bacteria (Table I), strain (11); type: cell-based; details: 2A1675; (11) Shigella flexneri 2a 1675; read-out: MIC
From the text: as §1

Proteus vulgaris 0X 19US = test: MIC against bacteria (Table I), strain (2); type: cell-based; details: 0X19US
From the text: as §1
(2) Proteus vulgaris 0X 19US

Shigella sonnei II 37148 = test: MIC against bacteria (Table I), strain (12); type: cell-based; details: II37148; (12) Shigella sonnei II 37148; read-out: MIC
From the text: as §1

[10] = test system: Klebsiella pneumoniae ATCC 10031; test: MIC against bacteria (Table I), strain (8); type: cell-based; details: Klebsiella pneumoniae, ATCC10031
From the text: as §1
(8) Klebsiella pneumoniae ATCC 10031

[11] = test system: Staphylococcus aureus 209P; test: MIC against bacteria (Table I), strain (16); type: cell-based
From the text: as §1
(16) Staphylococcus aureus 209P

[12] = Residual antibacterial activity after incubation with 90% plasma (Table 4); type: in vitro ADME, male Sprague-Dowley rat; details: 90% rat plasma; for remaining at 0.25 h / remaining at 0.5 h / remaining at 1.5 h: 90% plasma; for remaining at 0.25 h: 15 minute; for remaining at 0.5 h: 30 minute; for remaining at 1.5 h: 90 minute; for Residual activity: 0 minute
Experimental: as §2
A*Residual activity (%) when incubated with 90% plasma.

[13] = test system: Bacillus megatherium 10778; test: MIC against bacteria (Table I), strain (13); type: cell-based; details: (13) Bacillus megatherium 10778; read-out: MIC
From the text: as §1

[14] = test system: Micrococcus flavus ATCC 10240; test: MIC against bacteria (Table I), strain (15); type: cell-based; details: Micrococcus flavus, ATCC10240
From the text: as §1
(15) Micrococcus flavus ATCC 10240

Proteus vulgaris OXK US = test: MIC against bacteria (Table I), strain (1); type: cell-based; details: (1) Proteus vulgaris OXK US; read-out: MIC
From the text: as §1
(1) Proteus vulgaris OXK US

[15] = test system: Proteus mirabilis IXM OM-19; test: MIC against bacteria (Table I), strain (3); type: cell-based; details: IXMOM19; (3) Proteus mirabilis IXM OM-19; read-out: MIC
From the text: as §1
(3) Proteus mirabilis IXM OM-19

[16] = test system: Psuedomonas ovalis IMA 1002; test: MIC against bacteria (Table I), strain (6); type: cell-based; details: (6) Psuedomonas ovalis IMA 1002; read-out: MIC
From the text: as §1
(6) Psuedomonas ovalis IMA 1002

[17] = Solubility of salts in water (Table 2); type: physicochemical; details: disodium salt, water, showing pH 7.4; read-out: Solubility: disodium salt dissolved in water in an amount of
From the text: An advantage of the compounds of this invention is that the salts, for example, sodium salts of these compounds are readily soluble in water at pH of living bodies, which makes them suitable for injections at high concentration. The solubility of these compounds are illustrated in Table 2 together with a control example.

Row | Structure (SMILES) | MIC (Salmonella enteritidis) | MIC [2] | Amount of unaltered test sample ([3]; β-lactamase dilution ×2) | Amount of unaltered test sample ([3]; β-lactamase dilution ×4) | Amount of unaltered test sample ([3]; β-lactamase dilution ×8) | Amount of unaltered test sample ([3]; β-lactamase dilution ×16) | Amount of unaltered test sample ([3]; β-lactamase dilution ×32) | Amount of unaltered test sample ([3]; β-lactamase dilution ×64) | Amount of unaltered test sample ([3]; β-lactamase dilution ×128) | Amount of unaltered test sample ([3]; β-lactamase dilution ×256) | Amount of unaltered test sample ([3]; β-lactamase dilution ×512) | Amount of unaltered test sample ([3]; β-lactamase dilution ×1024) | MIC (Salmonella typhi H901 W) | MIC [5] | MIC [9] | MIC (Shigella sonnei II 37148) | MIC [10] | remaining at 0.25 h [12] | remaining at 0.5 h [12] | remaining at 1.5 h [12] | also measured
1 | CC(=O)OCC1=C(C(=O)O)N2C(=O)[C@@H](NC(=O)Cc3cccs3)[C@H]2SC1 [Cephalotin, reference compound] | 0.39 mg/L (≈ 0.984 µM) | 3.13 mg/L (≈ 7.9 µM) | 0 µg/mL | 0 µg/mL | 0 µg/mL | 0 µg/mL | 2.6 µg/mL | 11.8 µg/mL | 46.8 µg/mL | 81.6 µg/mL | 100 µg/mL | 100 µg/mL | 1.56 mg/L (≈ 3.93 µM) | 0.39 mg/L (≈ 0.984 µM) | 6.25 mg/L (≈ 15.8 µM) | 6.25 mg/L (≈ 15.8 µM) | 0.78 mg/L (≈ 1.97 µM) | 87% | 66% | 36% | Decomposition when homogenized with internal organs [1]: decomposed; MIC (Staphylococcus Onuma; Staphylococcus): 0.39 mg/L (≈ 0.984 µM); MIC ([4]; Pseudomonas aeruginosa): > 100 mg/L; MIC ([6]; Pseudomonas aeruginosa): > 100 mg/L; Residual activity ([7]; rat, 0 min): 100%; remaining at 0.25 h ([7]; rat): 17.2%; remaining at 0.5 h ([7]; rat): 12.2%; remaining at 1.5 h ([7]; rat): 12.6%; MIC ([8]; Bacillus subtilis): < 0.09 mg/L; MIC (Proteus vulgaris 0X 19US; Proteus vulgaris): 12.5 mg/L (≈ 31.5 µM); MIC ([11]; Staphylococcus aureus, 209P): 0.19 mg/L (≈ 0.479 µM); Residual activity [12]: 100%
2 | O=C(O)CSc1nnc(SCC2=C(C(=O)O)N3C(=O)[C@@H](NC(=O)[C@H](NC(=O)c4cnccc4O)c4ccccc4)[C@H]3SC2)s1 [Example 4, 7-[D-α-(4-hydroxynicotinoylamido)-α-phenylacetamido]-3-(5-carboxymethylthio-1,3,4-thiadiazol-2-yl)thiomethyl-Δ^3-cephem-4-carboxylic acid] | 0.39 mg/L (≈ 0.578 µM) | 3.13 mg/L (≈ 4.64 µM) | 0 µg/mL | 29.6 µg/mL | 61.0 µg/mL | 100 µg/mL | 100 µg/mL | 100 µg/mL | 100 µg/mL | 100 µg/mL | 100 µg/mL | 100 µg/mL | 1.56 mg/L (≈ 2.31 µM) | 3.13 mg/L (≈ 4.64 µM) | 0.78 mg/L (≈ 1.16 µM) | 3.13 mg/L (≈ 4.64 µM) | 3.13 mg/L (≈ 4.64 µM) | 97% | 93.9% | 103% | MIC [13]: 0.19 mg/L (≈ 0.282 µM); MIC (Staphylococcus Onuma; (18) Staphylococcus Onuma, read-out: MIC): 6.25 mg/L (≈ 9.26 µM); MIC ([4]; (5) Pseudomonas aeruginosa 99 (Gentamycin resistant), read-out: MIC): 6.25 mg/L (≈ 9.26 µM); MIC ([6]; (4) Pseudomonas aeruginosa ATCC 8689, read-out: MIC): 12.5 mg/L (≈ 18.5 µM); MIC [14]: 3.13 mg/L (≈ 4.64 µM); MIC (Proteus vulgaris OXK US): < 0.09 mg/L; MIC [15]: 0.39 mg/L (≈ 0.578 µM); MIC [16]: 6.25 mg/L (≈ 9.26 µM); remaining at 0.25 h ([7]; 10% rat liver homogenate, 15 minute, read-out: Residual activity): 93.5%; remaining at 0.5 h ([7]; 10% rat liver homogenate, 30 minute, read-out: Residual activity): 91.3%; remaining at 1.5 h ([7]; 10% rat liver homogenate, 90 minute, read-out: Residual activity): 102%; Residual activity ([7]; 10% rat liver homogenate, 0 minute): 100%; MIC ([8]; (14) Bacillus subtilis ATCC 6633, read-out: MIC): 0.19 mg/L (≈ 0.282 µM); MIC (Proteus vulgaris 0X 19US; (2) Proteus vulgaris 0X 19US, read-out: MIC): 0.19 mg/L (≈ 0.282 µM); MIC ([11]; (16) Staphylococcus aureus 209P, read-out: MIC): 0.78 mg/L (≈ 1.16 µM); solubility [17]: > 200 mg/mL; Residual activity [12]: 100%
